Patent US5026694A, “Platinum complexes with one radiosensitizing ligand” (priority 1989, dated 1991)
Like-named read-outs stand apart in the source and are kept apart here.

Experiments:
[1] = test system: Chinese hamster ovary (CHO) cells; assay: Toxicity in hypoxic and aerated CHO cells (plating efficiency/survival); assay type: cell-based; design: plating efficiency / effect on plating efficiency: dose or concentration left out as unconfirmed; conditions: for order of toxicity of free ligand: free ligands; for toxicity compared with the compounds of the invention: 100 mM/dm^3 experiments; for approximate order of hypoxic toxicity of platinum complexes: hypoxia
Description: The toxicity of the invention compounds with respect to Chinese hamster ovary (CHO) cells was compared in air and in nitrogen induced hypoxia as described by Moore, B. A., et al, Radiation Research (1976) 67:459-478. The radiosensitizing ligands, or cis or transdichlorodiamine platinum II (DDP) or the . bisubstituted platinum complexes, PtCl2 (L)2, were used as controls.
The cells were carried in MEM a medium with 10% fetal calf serum, and plating efficiencies were determined on the seventh day after plating.
In similar experiments at 100 mM/dm^3, MISO and trans-[PtCl2 (miso)2 ] show no toxicity. Survival rates for trans-DDP and monoammine were 0.2 and 0.1 respectively.
Using 100 mM levels, mono-6NQ caused plating efficiency to drop to 0 after an hour, while 6NQ had no effect after 3 hours.

CHO cells = assay: Radiosensitization of CHO cells (enhancement ratio); assay type: cell-based, Chinese hamster; conditions: for ER: Table 1; for radiosensitization, relative effectiveness: cis configuration, various concentrations, FIG. 2
Description: Radiosensitization of CHO cells was determined as described by Moore, B. A., et al, sucra, at 4° C., except that the cells were incubated with complex for 1 hr at 37° C. to allow binding to DNA prior to radiation. A Picker X-ray source (250 kVp, 1.7 mm Cu) was used. As with the toxicity studies, cells were carried, irradiated, and plated in MEM a medium with 10% fetal calf serum, and plating efficiencies were determined on the seventh day after plating. Enhancement ratios (ER) were calculated from the doses required to reduce survival to 1%.

cells = conditions: cited from earlier work
plasmid pSV2-gpt DNA = assay: Binding to DNA by inhibition of restriction enzyme (BamHI) cleavage of plasmid DNA; assay type: biochemical; design: inhibition of BamHI cleavage / inhibition of cleavage with BamHI: unit of the concentration uncertain; conditions: for binding to DNA, relative: all concentrations, FIG. 8; for inhibition of cleavage with BamHI: FIG. 3
Description: The ability of the invention compounds to bind DNA was tested using an assay which is based on inhibition of the ability of restriction enzymes to cleave the complexed DNA. The substrate in the assay was the plasmid pSV2-gpt (Mulligan, R., et al Science (1980) 209:1422-1427). After growth in E. coli. this 5.2 kb plasmid was extracted and linearized using PvuII. Cleavage of the extracted linearized segment by BamHI or EcoRI results in two fragments per enzyme. Inhibition of this cleavage by test compounds provides an assay method for binding of the test compounds.
In the assay, DNA (20 mg/ml) in 100 mM Tris-HCl, 1 mM EDTA, pH 8, was treated with the test compounds at approximately 100 mM for 1 hr at 37° C. Unbound drug was then removed using a G-50 Sephadex spin column (Pharmacia).
To 30 mM of the treated DNA, 23.5 ml of a buffer solution containing 0.33 M Tris-acetate, pH 7.9, 0.66 M potassium acetate, 0.10 M dithiothreitol, and 1 mg/ml BSA, along with 10 units of enzyme, were added. Enzyme activity was stopped using 1 ml 0.5 M EDTA after 30 min at 37° C. Tracking 0.25% bromophenol blue, 0.25% xylene cyanol in 30% glycerol water) was added, and 10 ml of the resulting solution loaded onto a 1% agarose gel made with E buffer (0.04 M Tris, 5 mM sodium acetate; 1 mM EDTA, pH 7.8) and subjected to horizontal electrophoresis. The slab gel was stained with aqueous ethidium bromide solution (1 ng/ml) and photographed under UV light.
Inhibition of the restriction enzyme cleavage was assessed qualitatively by noting the relative proportion of bands, or quantitatively by analyzing densitometric scans of the negatives of the recorded pictures.

[2] = test system: L1210 cells, cDDP sensitive line; assay: Toxicity in cisDDP-sensitive L1210 cells; assay type: cell-based; conditions: read-out: ID50 (the source's name)
Description: (§1) Patients become resistant to cisplatin (cisDDP) and to many related drugs.

[3] = test system: L1210 cells, cDDP resistant line; assay: Toxicity in cisDDP-resistant L1210 cells (cross-resistance); assay type: cell-based; conditions: for Ratio (ID50 cDDP resistant/cDDP sensitive): L1210 cells
Description: as §1

DNA of CHO cells = assay: Platinum bound to DNA extracted from whole CHO cells, atomic absorption; assay type: cell-based, Chinese hamster; design: dose or concentration left out as unconfirmed; conditions: 1-2 hr exposure
Description: Though the results of this assay were erratic they establish that the Pt complexes cross cell membranes and bind to DNA in mammalian cells.

tumors = conditions: cited from earlier work
KHT sarcoma = assay: Potentiation of cytotoxicity in vivo by hydralazine, KHT sarcoma model
[4] = FIG. 7, cis-mono-4NI and cis-mono-5NI
[5] = 100 mM/dm^3, cis configuration or ligand alone, dose to reduce survival to 1%

N.O=[N+]([O-])c1ccc2ncccc2c1.[Cl][Pt][Cl] [mono-6NQ, [PtCl2 (NH3)(6-nitroquinoline)]
toxicity compared with 6NQ alone ([1]; FIG. 5): much higher toxicity than 6NQ alone | plating efficiency ([1]; after an hour, 60 min): 0

COCC(O)Cn1ccnc1[N+](=O)[O-] (centres unmarked) [MISO]
toxicity ([1]; 100 mM/dm^3): no toxicity | order of toxicity of free ligand [1]: 4-nitroimidazole f MISO f ANT f METRO | ER (CHO cells; 100 mmol/dm^3): 1.3 | ER (CHO cells; 250 mmol/dm^3): 1.4 | sensitization in oxygen (CHO cells): no sensitization | sensitizing cells to radiation treatment in clinical trials (cells): beneficial effects in sensitizing cells to radiation treatment

N.O=[N+]([O-])c1cnc[nH]1.[Cl][Pt][Cl] [mono-5NI, PtCl2 (ammine)(5-nitroimidazole)]
binding to DNA, relative (plasmid pSV2-gpt DNA): more effective binding to DNA at all concentrations than cis-mono-4NI; neither bound as well, however, as cis-DDP | enhancement ratio (ER) (CHO cells; [4]): 1.28

O=[N+]([O-])c1ccc2ncccc2c1 [6NQ, 6-nitroquinoline]
effect on plating efficiency ([1]; after 3 hours): no effect

N.[Cl][Pt-]([Cl])[Cl].[K+] [monoammine, K[PtCl3 (NH3)]]
inhibition of BamHI cleavage (plasmid pSV2-gpt DNA; 160 mM (level not reached until this concentration)): 30% | binding to DNA as indicated by enzyme inhibition (plasmid pSV2-gpt DNA; 1 hr at 37° C.): showed binding to the DNA as indicated by enzyme inhibition | Survival rate ([1]; 100 mM/dm^3): 0.1 | toxicity compared with the compounds of the invention [1]: somewhat more toxic than the compounds of the invention | approximate order of hypoxic toxicity of platinum complexes [1]: cis-DDP ff trans-mono-MISO f monoammine Z cis-mono-MISO f trans-DDP f mono-METRO Z mono-NI f mono-ANT | ER (CHO cells; 100 mmol/dm^3): 1.2

N.O=[N+]([O-])c1c[nH]cn1.[Cl][Pt][Cl] [mono-4NI, PtCl2 (ammine)(4-nitroimidazole)]
binding to DNA, relative (plasmid pSV2-gpt DNA): neither bound as well, however, as cis-DDP | approximate order of hypoxic toxicity of platinum complexes [1]: cis-DDP ff trans-mono-MISO f monoammine Z cis-mono-MISO f trans-DDP f mono-METRO Z mono-NI f mono-ANT | enhancement ratio (ER) (CHO cells; [5]): 1.16 | enhancement ratio (ER) (CHO cells; [4]): 1.16 | radiosensitization, relative effectiveness (CHO cells): somewhat more effective than mono-ANT

Cc1n(CCO)c([N+](=O)[O-])c[n+]1[Pt-2]([NH3+])([Cl])[Cl] [cis mono METRO]
IC50 [2]: 4.4 mM | Ratio (ID50 cDDP resistant/cDDP sensitive) [3]: 5

Nc1ncc([N+](=O)[O-])s1 [ANT, 2-amino-5-nitrothiazole]
order of toxicity of free ligand [1]: 4-nitroimidazole f MISO f ANT f METRO | enhancement ratio (ER) (CHO cells; [5]): 1.25

O=C(Cn1ccnc1[N+](=O)[O-])NCCO [SR-2508]
sensitizing cells to radiation treatment in clinical trials (cells): beneficial effects in sensitizing cells to radiation treatment

N.N.[Cl][Pt+2][Cl] [trans-DDP, transdichlorodiamine platinum II]
IC50 [2]: 22 mM | Survival rate ([1]; 100 mM/dm^3): 0.2 | toxicity compared with the compounds of the invention [1]: somewhat less toxic | approximate order of hypoxic toxicity of platinum complexes [1]: cis-DDP ff trans-mono-MISO f monoammine Z cis-mono-MISO f trans-DDP f mono-METRO Z mono-NI f mono-ANT | IC50 ([3]; L1210, cDDP resistant line, read-out: ID50 (the source's name)): 66 mM | Ratio (ID50 cDDP resistant/cDDP sensitive) [3]: 3 | ER (CHO cells; 100 mmol/dm^3): 1.3 | platinum bound to the extracted DNA (DNA of CHO cells): 5 ng Pt/10^6 cells

Cc1ncc([N+](=O)[O-])n1CCO.N.[Cl][Pt][Cl] [mono-METRO]
inhibition of cleavage with BamHI (plasmid pSV2-gpt DNA; approximately 50 mM): At least 10% | approximate order of hypoxic toxicity of platinum complexes [1]: cis-DDP ff trans-mono-MISO f monoammine Z cis-mono-MISO f trans-DDP f mono-METRO Z mono-NI f mono-ANT | radiosensitization, relative effectiveness (CHO cells): approximately equal to mono-ANT

Cc1ncc([N+](=O)[O-])n1CCO [METRO, 1,2-hydroxyethyl-2-methyl-5-nitroimidazole]
order of toxicity of free ligand [1]: 4-nitroimidazole f MISO f ANT f METRO | sensitizing cells to radiation treatment in clinical trials (cells): beneficial effects in sensitizing cells to radiation treatment

O=[N+]([O-])c1c[nH]cn1 [4-nitroimidazole]
order of toxicity of free ligand [1]: 4-nitroimidazole f MISO f ANT f METRO | enhancement ratio (ER) (CHO cells; [5]): 1.10

COCC(O)Cn1cc[n+]([Pt-2]([Cl])([Cl])[n+]2ccn(CC(O)COC)c2[N+](=O)[O-])c1[N+](=O)[O-] (stereo not drawn) [trans-bis-MISO, trans-[PtCl2 (miso)2]]
toxicity ([1]; 100 mM/dm^3): no toxicity | toxicity compared with the compounds of the invention [1]: somewhat less toxic | ER (CHO cells; 100 mmol/dm^3): 1.2 | sensitization in oxygen (CHO cells): no sensitization

O=[N+]([O-])c1nccn1CC(O)CN1CC1 (centres unmarked) [RSU-1069]
side effects (tumors; chemotherapy): high incidence of side effects | amount of RSU-1069 required for effectiveness with 5-hydroxytryptamine or hydralazine (tumors; coadministration of 5-hydroxytryptamine or hydralazine): can be reduced by administration of 5-hydroxytryptamine or hydralazine | enhancement of effect of RSU-1069 by hydralazine (tumors; hydralazine 5 mg/kg or 30 mg/kg, RSU-1069 0.1 mg/g IP, within three hours): enhance the effect of RSU-1069

COCC(O)Cn1cc[n+]([Pt-2]([NH3+])([Cl])[Cl])c1[N+](=O)[O-] (centres unmarked) [mono-MISO, PtCl2 (NH3) (misonidazole)]
inhibition of cleavage with BamHI (plasmid pSV2-gpt DNA; approximately 50 mM): At least 10% | potentiation by hydralazine (KHT sarcoma; hydralazine 5 mg/kg, FIG. 4): potentiating effects of hydralazine on this compound | dose reduction to achieve equitoxic doses when hydralazine is coadministered (KHT sarcoma; with hydralazine): 4 × | drop in cell survival with combined therapy (KHT sarcoma; with hydralazine, mono-MISO 10 to 300 mg/kg, FIG. 4): approx. 3 logs | radiosensitization, relative effectiveness (CHO cells): somewhat more effective than mono-NI

COCC(O)Cn1cc[n+]([Pt-2]([NH3+])([Cl])[Cl])c1[N+](=O)[O-] (stereo not drawn) [cis-mono-MISO, PtCl2 (NH3) (misonidazole)]
IC50 ([2]; listed as cis mono MISO): 8.5 mM | toxicity in hypoxia versus in air ([1]; 100 mM/dm^3, aerobic and hypoxic cells, FIG. 1): toxicity is greater in hypoxia than in air | toxicity compared with MISO alone and cisDDP ([1]; complex 100 mM/dm^3, cis-DDP at 10 mM/dm^3): more toxic than MISO alone, although less toxic than cisDDP | ER (CHO cells; 100 mmol/dm^3): 1.25 | sensitization in oxygen (CHO cells): no sensitization

N.Nc1ncc([N+](=O)[O-])s1.[Cl][Pt][Cl] [mono-ANT, PtCl2 (ammine)(2-amino-5-nitrothiazole)]
inhibition of cleavage with BamHI (plasmid pSV2-gpt DNA; 320 (unit uncertain)): At least 10% | approximate order of hypoxic toxicity of platinum complexes [1]: cis-DDP ff trans-mono-MISO f monoammine Z cis-mono-MISO f trans-DDP f mono-METRO Z mono-NI f mono-ANT | enhancement ratio (ER) (CHO cells; [5]): 1.15
